Measurements taken from patent US11840686B2, “Modulation of prekallikrein (PKK) expression” (Ionis Pharmaceuticals, Inc., priority 2013, dated 2023).
Strand notation (5' to 3'): a small letter for the sugar, then the base; units joined by * are phosphorothioate-linked, units joined directly phosphodiester-linked; [ ] holds rarer units or linkages, { } end groups; capitals alone tell only the bases. e = 2'-O-(2-methoxyethyl) (MOE); [5mC] = 5-methylcytosine; d = 2'-deoxy (DNA)

How the values were obtained:
[1] = test system: human PKK mRNA; experiment: Antisense inhibition of human PKK mRNA in HepaRG cells, 5,000 nM (Example 2); format: cell-based; details: HepaRG cells, electroporation with 5,000 nM antisense oligonucleotide, PKK mRNA by RT-PCR (RTS3454), relative to untreated control cells
In short: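 HepaRG cells, 20,000 per well, were electroporated with 5,000 nM MOE gapmer (phosphorothioate, 5-methylcytosine) and incubated about 24 hours. PKK mRNA was quantified by qRT-PCR with primer probe set RTS3454, normalized to RIBOGREEN total RNA, and expressed as percent inhibition versus untreated controls.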

[2] = test system: human PKK mRNA; experiment: Dose-dependent antisense inhibition of human PKK in HepaRG cells, 0.19-5.00 uM (Example 5); format: cell-based; details: for percent inhibition of PKK mRNA, 0.19 μM: 0.19 μM antisense oligonucleotide; for percent inhibition of PKK mRNA, 0.56 μM: 0.56 μM antisense oligonucleotide; for percent inhibition of PKK mRNA, 1.67 μM: 1.67 μM antisense oligonucleotide; for percent inhibition of PKK mRNA, 5.00 μM: 5.00 μM antisense oligonucleotide
Protocol: Cells were plated at a density of 20,000 cells per well and transfected using electroporation with 0.19 μM, 0.56 μM, 1.67 μM, and 5.00 μM concentrations of antisense oligonucleotide. After a treatment period of approximately 16 hours, RNA was isolated from the cells and PKK mRNA levels were measured by quantitative real-time PCR. Human PKK primer probe set RTS3454 was used to measure mRNA levels. PKK mRNA levels were adjusted according to total RNA content, as measured by RIBOGREEN®. The antisense oligonucleotides were tested in a series of experiments that had similar culture conditions.
The half maximal inhibitory concentration (IC50) of each oligonucleotide is also presented.

[3] = HepaRG cells, electroporation, approximately 16 hours, Table 35
[4] = 4 point dose response, HepaRG cells, Table 35
[5] = HepaRG cells, electroporation, approximately 16 hours, Table 37
[6] = HepaRG cells, electroporation, approximately 16 hours, Table 36
[7] = HepaRG cells, electroporation, approximately 16 hours, Table 39
[8] = Table 34, HepaRG, electroporation, ~16 h

Substance | percent inhibition of PKK at 0.19 μM [2, 3] [%] | percent inhibition of PKK at 0.56 μM [2, 3] [%] | percent inhibition of PKK at 1.67 μM [2, 3] [%] | percent inhibition of PKK at 5.00 μM [2, 3] [%] | percent inhibition of PKK mRNA, 0.19 μM ([2]; HepaRG cells) [%] | percent inhibition of PKK mRNA, 0.56 μM ([2]; HepaRG cells) [%] | percent inhibition of PKK mRNA, 1.67 μM ([2]; HepaRG cells) [%] | percent inhibition of PKK mRNA, 5.00 μM ([2]; HepaRG cells) [%] | IC50 ([2]; HepaRG cells, 0.19-5.00 μM) [nM] | % inhibition ([1]; Table 7, approx. 24 hours) [%] | also measured
546208 (antisense e[5mC]*eG*eT*eT*eA*d[5mC]*dT*d[5mC]*dA*dG*d[5mC]*dA*d[5mC]*d[5mC]*dT*eT*eT*eA*eT*eA) [compound 546208] | 16 | 45 | 79 | 91 | 5 | 33 | 70 | 97 | 900 |  | % inhibition ([1]; approximately 24 hours, Table 6 experiment): 92%; IC50 [2, 4]: 700 nM
546214 (antisense eG*eA*eG*eA*eA*d[5mC]*d[5mC]*d[5mC]*dT*dG*dG*d[5mC]*dA*dA*d[5mC]*eA*eT*e[5mC]*e[5mC]*eA) [compound 546214] |  |  |  |  |  |  |  |  |  | 88 | percent inhibition of PKK at 0.19 μM [2, 5]: 0%; percent inhibition of PKK at 0.56 μM [2, 5]: 0%; percent inhibition of PKK at 1.67 μM [2, 5]: 68%; percent inhibition of PKK at 5.00 μM [2, 5]: 85%; IC50 ([2]; 4 point dose response, HepaRG cells, Table 37): 1300 nM
546216 (antisense e[5mC]*eT*eG*eG*eA*dG*dT*dG*dA*dG*dA*dA*d[5mC]*d[5mC]*d[5mC]*eT*eG*eG*e[5mC]*eA) [compound 546216] | 62 | 69 | 88 | 88 |  |  |  |  |  | 93 | percent inhibition of PKK at 5.00 μM ([2]; HepaRG cells, electroporation, approximately 16 hours, Table 41): 98%; percent inhibition of PKK at 0.19 0μM ([2]; 0.19 0μM, HepaRG cells, electroporation, approximately 16 hours, Table 41): 23%; percent inhibition of PKK at 0.56 0μM ([2]; 0.56 0μM, HepaRG cells, electroporation, approximately 16 hours, Table 41): 78%; percent inhibition of PKK at 1.67 1μM ([2]; 1.67 1μM, HepaRG cells, electroporation, approximately 16 hours, Table 41): 95%; IC50 ([2]; 4 point dose response, HepaRG cells, Table 41): < 200 nM
546247 (e[5mC]*e[5mC]*eA*eA*eA*dG*dT*d[5mC]*dA*dA*d[5mC]*dT*d[5mC]*d[5mC]*d[5mC]*eG*eG*eG*eT*eA; antisense) [compound 546247] |  |  |  |  |  |  |  |  |  | 90 | percent inhibition of PKK at 0.19 μM [2, 6]: 0%; percent inhibition of PKK at 0.56 μM [2, 6]: 29%; percent inhibition of PKK at 1.67 μM [2, 6]: 71%; percent inhibition of PKK at 5.00 μM [2, 6]: 88%; IC50 ([2]; 4 point dose response, HepaRG cells, Table 36): 1100 nM
546248 (e[5mC]*e[5mC]*eT*e[5mC]*e[5mC]*dA*dA*dA*dG*dT*d[5mC]*dA*dA*d[5mC]*dT*e[5mC]*e[5mC]*e[5mC]*eG*eG; antisense) [compound 546248] |  |  |  |  | 0 | 59 | 73 | 89 | 800 | 86 | percent inhibition of PKK at 0.19 μM [2, 7]: 25%; percent inhibition of PKK at 0.56 μM [2, 7]: 66%; percent inhibition of PKK at 1.67 μM [2, 7]: 87%; percent inhibition of PKK at 5.00 μM [2, 7]: 93%; IC50 ([2]; 4 point dose response, HepaRG cells, Table 39): 400 nM
546253 (eG*eT*e[5mC]*eT*e[5mC]*dT*dT*dG*dG*d[5mC]*dA*dA*dA*d[5mC]*dA*eT*eT*e[5mC]*eA*e[5mC]; antisense) [compound 546253] |  |  |  |  |  |  |  |  |  |  | % inhibition ([1]; Table 8, approx. 24 hours): 98%; percent inhibition of PKK at 0.19 μM [2, 8]: 1%; percent inhibition of PKK at 0.56 μM [2, 8]: 13%; percent inhibition of PKK at 1.67 μM [2, 8]: 46%; percent inhibition of PKK at 5.00 μM [2, 8]: 81%; IC50 ([2]; Table 34, PKK mRNA, HepaRG, electroporation, ~16 h): 1700 nM
546255 (e[5mC]*eT*eT*eT*eG*dT*dG*d[5mC]*dA*dA*dG*dT*d[5mC]*dT*d[5mC]*eT*eT*eG*eG*e[5mC]; antisense) [compound 546255] | 32 | 35 | 78 | 87 | 5 | 39 | 82 | 96 | 800 |  | % inhibition ([1]; Table 8, approx. 24 hours): 92%; IC50 [2, 4]: 500 nM
